The record followed here is article PMC4294381, “Metformin repositioning as antitumoral agent: selective antiproliferative effects in human glioblastoma stem cells, via inhibition of CLIC1-mediated ion current” (Oncotarget, 2014).

What all share (type): cell-based
Test [1] has as its target T1, chloride intracellular channel-1 (CLIC1) (Homo sapiens, UniProt O00299). The experiment in a line: patch clamp, whole-cell (U87, GBM CSC, CHO expressing human CLIC1) and outside-out single channel.
Test [2] has as its target T2, chloride intracellular channel-1 (CLIC1) (Homo sapiens, UniProt O00299, K37A).
T2 construct: FLAG-tagged CLIC1 K37A expressed in CHO cells
The experiment in a line: whole-cell patch clamp in transfected CHO cells, metformin […].

In test [3] the target is T3, chloride intracellular channel-1 (CLIC1) (Homo sapiens, UniProt O00299, R29A).
T3 construct: FLAG-tagged CLIC1 R29A expressed in CHO cells
The experiment in a line: whole-cell patch clamp in transfected CHO cells. On the technique in general: The patch-clamp technique gives a direct electrical read-out from membranes.

The target of test [4] is T1, chloride intracellular channel-1 (CLIC1). Briefly: whole-cell patch clamp in transfected CHO cells. Also noted: FLAG-tagged CLIC1-wt expressed in CHO cells.

The structures appear in SMILES notation.

A word on the EC50: it is the concentration at which the effect is half-maximal. Higher therefore signals lower potency in that assay. With `CN(C)C(=N)N=C(N)N` [Metformin], it took 2100 µM to reach a half-maximal effect in test [1] (EC50). For the same compound, the “whole-cell patch clamp in transfected CHO cells, metformin 10 mM” value in test [2] was “Metformin significantly inhibited membrane current in CLIC1 wt and K37A-transfected cells (Fig. 7A and D)”.
Take `CC1(C2CCCC2)Cc2cc(OCC(=O)O)c(Cl)c(Cl)c2C1=O` (stereo not shown) [IAA94]: the EC50 was 29.2 µM in test [3] and 27.3 µM in test [4].
